# Data taken from PubChem BioAssay (NCI).
#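 Each compound was tested at five concentrations against cells in 96-well plates for 48 hours. The concentration for full growth arrest is given as TGI.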
# Experiments:
# Assay in all cases: inhibition of tumour cell growth, NCI panel, 48 h
# DMS 114 small cell lung = system: DMS 114 small cell lung
# HT29 colon = system: HT29 colon
# HCT-15 colon = system: HCT-15 colon
# EKVX NSCLC = system: EKVX NSCLC
# HOP-92 NSCLC = system: HOP-92 NSCLC
# A498 renal = system: A498 renal
# ACHN renal = system: ACHN renal
# M14 melanoma = system: M14 melanoma
# HCC-2998 colon = system: HCC-2998 colon
# T-47D breast = system: T-47D breast
smiles,measurement,setting,value
O=C1C(CN2CCOCC2)CCCC1CN1CCOCC1 (stereo unspecified),TGI,DMS 114 small cell lung,11.4 µM
same,TGI,HT29 colon,4.16 µM
same,TGI,HCT-15 colon,3.2 µM
same,TGI,EKVX NSCLC,10.7 µM
same,TGI,HOP-92 NSCLC,1.97 µM
same,TGI,A498 renal,42.3 µM
same,TGI,ACHN renal,3.53 µM
same,TGI,M14 melanoma,7.1 µM
same,TGI,HCC-2998 colon,10.3 µM
CCc1nc2ccc(NCCN(C)C)c3c(=O)c4ccccc4n1c23,TGI,DMS 114 small cell lung,14.8 µM
same,TGI,T-47D breast,20.8 µM
same,TGI,HT29 colon,5.08 µM
same,TGI,HCT-15 colon,4.66 µM
same,TGI,EKVX NSCLC,6.78 µM
same,TGI,HOP-92 NSCLC,5.26 µM
same,TGI,A498 renal,11 µM
same,TGI,ACHN renal,6.03 µM
same,TGI,M14 melanoma,4.68 µM
same,TGI,HCC-2998 colon,5.8 µM
Cc1cc(=O)[nH]c(NN2C(Cl)C(=O)C2c2cccc(Cl)c2)n1 (stereo unspecified),TGI,DMS 114 small cell lung,54.8 µM
same,TGI,HT29 colon,76.8 µM
same,TGI,HCT-15 colon,40.9 µM
same,TGI,EKVX NSCLC,> 100 µM
same,TGI,HOP-92 NSCLC,41.5 µM
same,TGI,ACHN renal,> 100 µM
same,TGI,M14 melanoma,35.4 µM
same,TGI,HCC-2998 colon,98.9 µM
O=C1Nc2ccccc2Nc2ccncc21,TGI,DMS 114 small cell lung,> 100 µM
same,TGI,HT29 colon,> 100 µM
same,TGI,HCT-15 colon,> 100 µM
same,TGI,EKVX NSCLC,> 100 µM
same,TGI,HOP-92 NSCLC,> 100 µM
same,TGI,A498 renal,> 100 µM
same,TGI,HCC-2998 colon,> 100 µM
COc1ccc(/C=C/C2=NN(c3cccc(S(=O)(=O)O)c3)C3(C2)SCC(=O)N3c2nc3ccccc3s2)cc1 (stereo unspecified),TGI,T-47D breast,87.1 µM
same,TGI,HT29 colon,> 100 µM
same,TGI,HCT-15 colon,> 100 µM
same,TGI,EKVX NSCLC,> 100 µM
same,TGI,HOP-92 NSCLC,> 100 µM
same,TGI,A498 renal,> 100 µM
same,TGI,ACHN renal,> 100 µM
same,TGI,M14 melanoma,> 100 µM
same,TGI,HCC-2998 colon,> 100 µM
CC(=N\N)/C(C)=N/N=C(C)/C(C)=N/N=C(C)/C(C)=N/N,TGI,T-47D breast,> 100 µM
same,TGI,HT29 colon,> 100 µM
same,TGI,HCT-15 colon,> 100 µM
same,TGI,EKVX NSCLC,> 100 µM
same,TGI,HOP-92 NSCLC,> 100 µM
same,TGI,A498 renal,> 100 µM
same,TGI,ACHN renal,> 100 µM
same,TGI,M14 melanoma,> 100 µM
same,TGI,HCC-2998 colon,> 100 µM
C[N+]1(CCN[N+]2(C)CCCCC2)CCc2ccccc2C1 (stereo unspecified),TGI,T-47D breast,> 100 µM
same,TGI,HT29 colon,> 100 µM
same,TGI,HCT-15 colon,> 100 µM
same,TGI,EKVX NSCLC,> 100 µM
same,TGI,HOP-92 NSCLC,> 100 µM
same,TGI,A498 renal,> 100 µM
same,TGI,ACHN renal,> 100 µM
same,TGI,M14 melanoma,> 100 µM
same,TGI,HCC-2998 colon,> 100 µM
C(=C\N1CCCCC1)/c1nnnn1-c1ccccc1,TGI,T-47D breast,76.3 µM
same,TGI,HT29 colon,> 100 µM
same,TGI,HCT-15 colon,> 100 µM
same,TGI,EKVX NSCLC,63.1 µM
same,TGI,HOP-92 NSCLC,> 100 µM
same,TGI,A498 renal,> 100 µM
same,TGI,ACHN renal,> 100 µM
same,TGI,M14 melanoma,38.5 µM
same,TGI,HCC-2998 colon,> 100 µM
O=C1Nc2ccccc2/C1=c1\[nH]c(=O)/c(=C\c2ccc(OCc3ccccc3)cn2)[nH]c1=O,TGI,T-47D breast,> 100 µM
same,TGI,HT29 colon,> 100 µM
same,TGI,HCT-15 colon,> 100 µM
same,TGI,EKVX NSCLC,> 100 µM
same,TGI,HOP-92 NSCLC,76.8 µM
same,TGI,A498 renal,77.9 µM
same,TGI,ACHN renal,> 100 µM
same,TGI,M14 melanoma,> 100 µM
same,TGI,HCC-2998 colon,> 100 µM
CCOC(=O)Cc1nc2c(N)ncnc2n1C1OC(COC(C)=O)C(OC(C)=O)C1OC(C)=O (stereo unspecified),TGI,T-47D breast,> 100 µM
same,TGI,HT29 colon,> 100 µM
same,TGI,HCT-15 colon,> 100 µM
same,TGI,EKVX NSCLC,> 100 µM
same,TGI,HOP-92 NSCLC,> 100 µM
same,TGI,A498 renal,> 100 µM
same,TGI,ACHN renal,> 100 µM
same,TGI,M14 melanoma,> 100 µM
same,TGI,HCC-2998 colon,> 100 µM
CC1CC(=O)N(N(C)C)C(C#N)(C#N)C1(C#N)C#N (stereo unspecified),TGI,T-47D breast,42.1 µM
same,TGI,HT29 colon,38 µM
same,TGI,HCT-15 colon,31.6 µM
same,TGI,EKVX NSCLC,57.5 µM
same,TGI,HOP-92 NSCLC,26 µM
same,TGI,A498 renal,34.1 µM
same,TGI,ACHN renal,29.3 µM
same,TGI,M14 melanoma,42.9 µM
same,TGI,HCC-2998 colon,34.9 µM
S=C(Nc1ccc2cn[nH]c2c1)Nc1ccc2cn[nH]c2c1,TGI,T-47D breast,> 100 µM
same,TGI,HT29 colon,> 100 µM
same,TGI,HCT-15 colon,> 100 µM
same,TGI,EKVX NSCLC,> 100 µM
same,TGI,HOP-92 NSCLC,> 100 µM
same,TGI,A498 renal,> 100 µM
same,TGI,ACHN renal,> 100 µM
same,TGI,M14 melanoma,> 100 µM
same,TGI,HCC-2998 colon,> 100 µM
C/C1=C\C=C(\C(C)C)CC/C(C(=O)O)=C\CC/C(C)=C/CC1,TGI,T-47D breast,> 100 µM
same,TGI,HT29 colon,99 µM
same,TGI,HCT-15 colon,51.1 µM
same,TGI,EKVX NSCLC,78.7 µM
same,TGI,HOP-92 NSCLC,40.5 µM
same,TGI,A498 renal,34.1 µM
same,TGI,ACHN renal,> 100 µM
same,TGI,M14 melanoma,63.6 µM
same,TGI,HCC-2998 colon,33.8 µM
COc1cc(C2c3cc4c(cc3OC(N3CCNCC3)C2C)OCO4)cc(OC)c1OC (stereo unspecified),TGI,T-47D breast,> 100 µM
same,TGI,HT29 colon,7.54 µM
same,TGI,HCT-15 colon,> 39.9 µM
same,TGI,EKVX NSCLC,> 100 µM
same,TGI,HOP-92 NSCLC,24.8 µM
same,TGI,A498 renal,52.1 µM
same,TGI,ACHN renal,48.7 µM
same,TGI,M14 melanoma,20 µM
same,TGI,HCC-2998 colon,5.83 µM
CCN(CC)c1ccc(/C=C/C=C2C(=O)NC(=S)NC2=O)cc1,TGI,T-47D breast,> 100 µM
same,TGI,HT29 colon,> 100 µM
same,TGI,HCT-15 colon,> 100 µM
same,TGI,EKVX NSCLC,> 100 µM
same,TGI,HOP-92 NSCLC,> 100 µM
same,TGI,A498 renal,> 100 µM
same,TGI,ACHN renal,> 100 µM
same,TGI,M14 melanoma,> 100 µM
same,TGI,HCC-2998 colon,> 100 µM
CN(C)c1cccc(NC2=NCCO2)c1,TGI,T-47D breast,> 100 µM
same,TGI,HT29 colon,47.4 µM
same,TGI,HCT-15 colon,> 100 µM
same,TGI,EKVX NSCLC,> 100 µM
same,TGI,HOP-92 NSCLC,> 100 µM
same,TGI,A498 renal,> 100 µM
same,TGI,ACHN renal,> 100 µM
same,TGI,M14 melanoma,> 100 µM
same,TGI,HCC-2998 colon,> 100 µM
CCOc1cc(NC(C)=O)ccc1C(=O)NN1C(=O)CSC1c1ccccc1 (stereo unspecified),TGI,T-47D breast,> 100 µM
same,TGI,HT29 colon,> 100 µM
same,TGI,HCT-15 colon,> 100 µM
same,TGI,EKVX NSCLC,> 100 µM
same,TGI,HOP-92 NSCLC,> 100 µM
same,TGI,A498 renal,> 100 µM
same,TGI,ACHN renal,> 100 µM
same,TGI,M14 melanoma,> 100 µM
same,TGI,HCC-2998 colon,> 100 µM
